From patent US9789111B2, “Casein kinase 1δ (CK 1δ) inhibitors” (Electrophoretics Limited, priority 2010, dated 2017)

Assays:
CK1g1 = CK1g1 (Homo sapiens, UniProt Q9HCP0); test: kinase inhibition assay panel; format: biochemical
[1] = tested on: Tau phosphorylation in SH-SY5Y-TMHT cells; test: PhosphoTau SRM assay V2 and V3 (mass spectrometric); format: cell-based, human; conditions: for relative level of phosphorylation at each site (level of phosphopeptide) compared with vehicle treated controls / Tau phosphorylated at S396: 10 μM; for relative level of phosphorylation at each site (level of phosphopeptide) compared with vehicle treated controls: PhosphoTau SRM assay V2 and V3; for Tau phosphorylated at S396: vehicle control approximately 83%; for phosphorylation of Ser 396 within Tau proteins: FIG. 4
From the text: The PhosphoTau SRM V2 assay measures total tau and relative phosphorylation levels at five of the most commonly studied sites on Tau and was obtained from Proteome Sciences plc (Cobham, England). None of the sites in the V2 assay is uniquely phosphorylated by CK1δ and there is a possibility that compound-induced inhibition of phosphorylation measured by this method may be achieved through promiscuous inhibition of other kinases such as GSK3b and/or CDK5. […] Table 1 lists the various sites covered and the candidate Tau kinases reported in Hanger et al. (2007).
SH-SY5Y-TMHT cells are kept in culture medium (DMEM medium, 10% FCS, 1% NEAA, 1% L-Glutamine, 100 μg/ml Gentamycin, 300 μg/ml Geneticin G-418) for 2 days until 80-90% confluency. Cells are then differentiated in culture medium supplemented with 10 μM retinoic acid (RA) for 7 days changing medium every 2 to 3 days. […] On day 8 post-differentiation, the test compounds, reference compounds and vehicle control were added to the culture medium. After 6 h of compound exposure one plate of cells is subjected to a MTT assay to evaluate the effect of test and reference items on cell viability. Remaining wells are washed once with cold PBS and harvested in 300 μl RIPA-Buffer [50 mM Tris pH 7.4, 1% Nonident P40, 0.25% Na-deoxy-cholate, 150 mM NaCl, 1 mM EDTA, 1 μM NaF, 1 μM Na-ortho-vanadate, 80 mM Glycerophosphate, supplemented with freshly added protease (Calbiochem) and phosphatase (Sigma) inhibitor cocktail]. The cell suspension is transferred into a 1.5 ml tube and additionally lysed by sonication on ice. An aliquot of 20 μl is taken for the determination of the protein concentration (BCA assay). Subsequently, the lysates are snap frozen and stored at −80° C. until shipment.
Stacking gels are loaded with approximately 100 μg total protein based on BCA assay results. Gels are run until the total protein content forms a single discrete band in the stacking gel. Each protein band is then cut from the gel and digested with either trypsin or Asp-N and analysed using the PhosphoTau SRM assay V2 or V3 respectively. Each assay method quantifies the phosphorylation in pre-clinical material using a triple quadrupole mass spectrometer (TSQ Vantage, Thermo Scientific, Hemel Hempstead, UK). Prior to SRM analysis phosphopeptides and pre-clinical samples were resolved by RP-chromatography (XBridge column, Waters, Manchester, UK) over a 9 minute gradient 0-30% ACN (buffer A; 0.1% FA, buffer B; ACN, 0.1% FA). Light and heavy versions for each peptide and phosphopeptide were monitored by several SRM transitions, using optimised S Lens values and collision energy settings. The area under the SRM LC peak was used to quantitate the amount of analyte present in each cell lysate as a single point reference to the signal of the heavy peptide spike.
An 11 point calibration curve of light phosphopeptides with each point in the curve spiked with 100 fmol heavy phosphopeptides was also produced to determine assay characteristics (LOD, LOQ, precision and accuracy). For each specified tau population, the endogenous level of each tau phosphopeptide was quantified against its calibration curve (0.25-1000 fmol on column). Prior to LC-SRM analysis each tau population was spiked with 100 fmol of the heavy phosphopeptide standards.

[2] = tested on: total Tau in SH-SY5Y-TMHT cells; test: Western Blot of total Tau; format: cell-based, human; conditions: 10 μM
Procedure: SH-SY5Y-TMHT cells are kept in culture medium (DMEM medium, 10% FCS, 1% NEAA, 1% L-Glutamine, 100 μg/ml Gentamycin, 300 μg/ml Geneticin G-418) for 2 days until 80-90% confluency. Cells are then differentiated in culture medium supplemented with 10 μM retinoic acid (RA) for 7 days changing medium every 2 to 3 days. Differentiated cells are seeded onto 6-well plates and 96-well plates at a cell density of 1.25×10^6 and 8×10^5 cells per well, respectively. On day 8 post-differentiation, the test compounds, reference compounds and vehicle control were added to the culture medium. After 6 h of compound exposure one plate of cells is subjected to a MTT assay to evaluate the effect of test and reference items on cell viability. Remaining wells are washed once with cold PBS and harvested in 300 μl RIPA-Buffer [50 mM Tris pH 7.4, 1% Nonident P40, 0.25% Na-deoxy-cholate, 150 mM NaCl, 1 mM EDTA, 1 μM NaF, 1 μM Na-ortho-vanadate, 80 mM Glycerophosphate, supplemented with freshly added protease (Calbiochem) and phosphatase (Sigma) inhibitor cocktail]. The cell suspension is transferred into a 1.5 ml tube and additionally lysed by sonication on ice. An aliquot of 20 μl is taken for the determination of the protein concentration (BCA assay). Subsequently, the lysates are snap frozen and stored at −80° C. until shipment.
Lysates of treated cells were prepared in Laemmli buffer and 10 μg loaded into each lane of a 10% Nu-PAGE gel (Invitrogen, UK). Samples were run until the coomassie blue dye fromt was within 1 cm of the bottom of the gel. The separated proteins were transferred onto nitrocellulose and blots developed using antibodies specific for total tau (Polyclonal Rabbit Anti-Human Tau, Dako, UK (cat # A0024)) and phopho-Threonine 231 (Tau (Phospho-Thr231) Antibody, Signalway Antibody, USA (cat # 11110)) respectively. In each case the bound antibody was detected using ECL Rabbit IgG, HRP-Linked (from donkey) (GE Healthcare, UK (cat # NA934))

Sequence of CK1g1 (Q9HCP0 whole entry): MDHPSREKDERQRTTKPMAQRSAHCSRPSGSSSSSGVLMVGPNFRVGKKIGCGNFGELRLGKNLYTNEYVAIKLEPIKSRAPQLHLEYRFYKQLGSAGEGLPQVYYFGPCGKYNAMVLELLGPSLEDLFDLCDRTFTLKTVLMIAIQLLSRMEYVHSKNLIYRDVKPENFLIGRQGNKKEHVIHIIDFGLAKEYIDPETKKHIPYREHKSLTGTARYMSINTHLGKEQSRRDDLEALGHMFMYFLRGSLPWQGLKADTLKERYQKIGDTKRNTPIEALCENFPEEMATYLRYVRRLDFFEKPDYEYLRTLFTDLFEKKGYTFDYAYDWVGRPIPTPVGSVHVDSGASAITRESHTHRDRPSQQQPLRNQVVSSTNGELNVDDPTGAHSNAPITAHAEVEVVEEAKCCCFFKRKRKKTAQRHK

Nc1ncc(-c2nc3ccccc3o2)c(-c2ccncc2)n1 [Compound 324, 5-(1,3-benzoxazol-2-yl)-4-(pyridin-4-yl)pyrimidin-2-amine]
inhibition of CK1g1 (CK1g1): lower than 40%
relative level of phosphorylation at each site (level of phosphopeptide) compared with vehicle treated controls [1]: distinct reduction
Tau phosphorylated at S396 [1]: 38%
phosphorylation of Ser 396 within Tau proteins [1]: inhibit phosphorylation
detectable levels of total Tau [2]: no significant difference

NC(=O)c1c(N)c(C(=O)c2ccc(F)cc2)n2ccccc12 [Compound 987, 2-amino-3-[(4-fluorophenyl)carbonyl]indolizine-1-carboxamide]
inhibition of CK1g1 (CK1g1): lower than 40%
relative level of phosphorylation at each site (level of phosphopeptide) compared with vehicle treated controls [1]: distinct reduction
Tau phosphorylated at S396 [1]: 24%
phosphorylation of Ser 396 within Tau proteins [1]: inhibit phosphorylation
detectable levels of total Tau [2]: no significant difference
